According to ChEMBL document CHEMBL1150095, “Antitumor activity and stereochemistry of acetylenic alcohols from the sponge Cribrochalina vasculum” (1995):
Active and inactive are the calls of the source. The rule behind the calls is not given here.

Legend:
Format in all cases: functional
[1] = system: NCI-H522; experiment: Antitumor activity against human NCI-H522 cells
[2] = system: IGROV-1; experiment: Antitumor activity against human IGROV1 cells
[3] = system: IGROV-1; experiment: Antitumor activity against human IGROV1 cell xenografted athymic mouse assessed as increase in life span at 50 mg/kg, ip once daily; conditions: route intraperitoneal

SMILES	Activity [1]	Activity [2]	Activity [3]
C#C[C@@H](O)/C=C/CCCCCCCCC/C=C\CCCCC(C)C	Active	Active	–
C#C[C@@H](O)/C=C/CCCCCCCCCCCCCCC	Active	Active	36.5 days
